This is an account of results in US8765730B2 (Hoffmann-La Roche Inc, priority 2010, dated 2014).

The test addresses T1, human GPBAR1 receptor (Homo sapiens, UniProt Q8TDU6).
T1 construct: expressed in transfected cells
T1 sequence (Q8TDU6 1-330): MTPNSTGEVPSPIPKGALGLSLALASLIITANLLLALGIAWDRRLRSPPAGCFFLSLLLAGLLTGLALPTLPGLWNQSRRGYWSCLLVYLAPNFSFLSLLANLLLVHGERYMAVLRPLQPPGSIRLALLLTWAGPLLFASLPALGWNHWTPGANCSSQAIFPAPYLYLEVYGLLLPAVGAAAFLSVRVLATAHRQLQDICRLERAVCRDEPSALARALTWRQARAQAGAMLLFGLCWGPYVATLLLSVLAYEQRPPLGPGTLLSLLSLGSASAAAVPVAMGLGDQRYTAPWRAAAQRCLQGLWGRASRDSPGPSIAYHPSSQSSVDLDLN
Nature of the test: functional cAMP assay in CHO-dhfr(minus) cells expressing human GPBAR1 receptors. The following applies: human EC50, functional cAMP assay, 30 min at 30° C. Type of test: cell-based. An outline of the steps:
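Agonist cAMP read-out: stable GPBAR1 CHO-dhfr− clone, 30 min compound exposure at 30° C following 30 min IBMX (1 mM) preincubation in Krebs Ringer bicarbonate. Time-resolved energy-transfer detection gives EC50; parental CHO cells serve as counter-screen.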
(Changes in cAMP serve as a functional read-out for many G protein-coupled receptors.)
`Cc1ccccc1C(C/C(=N\O)c1ccc(=O)n(C)c1)c1ccc(-c2ccccc2C(=O)O)cc1F` (stereo not shown) [Example 236, 3′-Fluoro-4′-[3-[(E)-hydroxyimino]-3-(1-methyl-6-oxo-1,6-dihydro-pyridin-3-yl)-1-o-tolyl-propyl]-biphenyl-2-carboxylic acid]: the EC50 (usually the concentration that produces a half-maximal response) was determined as 1200 nM.

As to `Cc1cc(/C(C[C@H](c2ccc(N3CC4(CSC4)C3)cc2)c2ccccc2C)=N/O)ccn1` [Example 371, (3R,E)-3-(4-(2-thia-6-azaspiro[3.3]heptan-6-yl)phenyl)-1-(2-methylpyridin-4-yl)-3-o-tolylpropan-1-one oxime], the EC50 was found to be 24 nM. Under `Cc1cc(/C(C[C@H](c2ccc(Br)cc2)c2ccc(F)cc2F)=N/O)ccn1` (single isomer, unassigned) [Example 426, (−)-3-(4-Bromo-phenyl)-3-(2,4-difluoro-phenyl)-1-(2-methyl-pyridin-4-yl)-propan-1-one oxime] stands 41 nM; under `CC(/C(=N\O)c1ccncc1)C(c1ccccc1)c1ccccc1` (stereo not shown) [Example 153, (E)-2-Methyl-3,3-diphenyl-1-pyridin-4-yl-propan-1-one oxime], 151 nM; under `CCOC(=O)c1ccc(-c2ccc([C@@H](C/C(=N\O)c3ccc(=O)n(C)c3)c3ccc(Cl)cc3F)cc2)s1` [Example 467, 5-{4-[(−)-1-(4-Chloro-2-fluoro-phenyl)-3-[(E)-hydroxyimino]-3-(1-methyl-6-oxo-1,6-dihydro-pyridin-3-yl)-propyl]-phenyl}-thiophene-2-carboxylic acid ethyl ester], 348 nM. Under `Cc1ccccc1[C@H](C/C(=N\O)c1ccc(=O)n(C)c1)c1ccc(C2CCN(S(N)(=O)=O)CC2)cc1` [Example 510, (R,E)-4-(4-(3-(Hydroxyimino)-3-(1-methyl-6-oxo-1,6-dihydropyridin-3-yl)-1-o-tolylpropyl)phenyl)piperidine-1-sulfonamide] stands 48 nM. The result for `Cc1cc(/C(CC(c2ccc(Br)cc2)c2ccccc2C(F)(F)F)=N/O)ccn1` (stereo not shown) [Example 132, (E)-3-(4-Bromo-phenyl)-1-(2-methyl-pyridin-4-yl)-3-(2-trifluoromethyl-phenyl)-propan-1-one oxime] reads 46 nM; that for `Cn1cc(/C(CC(c2ccc(-c3ccc(C(=O)O)c(F)c3)cc2)c2ccc(Cl)cc2Cl)=N/O)ccc1=O` (single isomer, unassigned) [Example 475, 4′-[(+)-1-(2,4-dichloro-phenyl)-3-[(E)-hydroxyimino]-3-(1-methyl-6-oxo-1,6-dihydro-pyridin-3-yl)-propyl]-3-fluoro-biphenyl-4-carboxylic acid], 166 nM; that for `Cc1ccccc1C(CC(=NO)c1cc(Cl)ccc1Cl)c1ccc(Br)cc1` (racemic) [Example 49, 3-(4-Bromo-phenyl)-1-(2,5-dichloro-phenyl)-3-o-tolyl-propan-1-one oxime], 2910 nM. Consider `Cc1cc(/C(CC(c2ccc(N3CCOCC3)nc2)c2ccc(F)cc2F)=N/O)ccn1` (stereo not shown) [Example 443, 3-(2,4-Difluoro-phenyl)-1-(2-methyl-pyridin-4-yl)-3-(6-morpholin-4-yl-pyridin-3-yl)-propan-1-one oxime], for which it took 98 nM to reach a half-maximal effect (EC50). The result for `Cc1cc(/C(C[C@H](c2ccc(N3CCOCC3)cc2)c2ccccc2C)=N/O)ccn1` [Example 264, (E,R)-1-(2-Methyl-pyridin-4-yl)-3-(4-morpholin-4-yl-phenyl)-3-o-tolyl-propan-1-one oxime] reads 2 nM. On to `Cc1ccccc1[C@H](C/C(Cc1ccncc1)=N/O)c1ccc(Br)cc1` [Example 262, (Z,R)-4-(4-bromophenyl)-1-(pyridin-4-yl)-4-o-tolylbutan-2-one oxime], for which it took 278 nM to reach a half-maximal effect (EC50). The compound `Cc1cc(/C(C[C@H](c2ccc(-c3nnc(CC(=O)O)o3)cc2)c2ccccc2C)=N/O)ccn1` (single isomer, unassigned) [Example 422, (5-{4-[(−)-3-[(E)-Hydroxyimino]-3-(2-methyl-pyridin-4-yl)-1-o-tolyl-propyl]-phenyl}-[1,3,4]oxadiazol-2-yl)-acetic acid] came in with an EC50 of 11 nM.

`CS(=O)(=O)c1ccc(-c2cccc(C(C/C(=N\O)c3ccncc3)c3ccccc3)c2)cc1` (stereo not shown) [Example 24, (E)-3-(4′-Methanesulfonyl-biphenyl-3-yl)-3-phenyl-1-pyridin-4-yl-propan-1-one oxime] gave an EC50 of 2190 nM. Compared with the last compound, the EC50 is about 200-fold higher. For `Cc1cc(Cl)ccc1C(C/C(=N\O)c1ccc(=O)n(C)c1)c1ccc(Oc2cccc(C(=O)O)c2)cc1` (stereo not shown) [Example 346, 3-{4-[1-(4-Chloro-2-methyl-phenyl)-3-[(E)-hydroxyimino]-3-(1-methyl-6-oxo-1,6-dihydro-pyridin-3-yl)-propyl]-phenoxy}-benzoic acid], the EC50 came out at 42 nM. Regarding `Cc1cc(C(CC(c2cccc(-c3ccc(C(=O)O)nc3)c2)c2ccccc2C)=NO)ccn1` (racemic) [Example 99, 5-{3-[3-[Hydroxyimino]-3-(2-methyl-pyridin-4-yl)-1-o-tolyl-propyl]-phenyl}-pyridine-2-carboxylic acid], the EC50 came to 5050 nM. Under `Cc1cc(/C(CC(c2ccc(C(F)(F)F)cc2)c2ccc(F)cc2F)=N/O)ccn1` (stereo not shown) [Example 442, 3-(2,4-Difluoro-phenyl)-1-(2-methyl-pyridin-4-yl)-3-(4-trifluoromethyl-phenyl)-propan-1-one oxime] stands 109 nM; under `Cc1ccccc1C(C/C(=N\O)c1cnccn1)c1ccc(Br)cc1` (stereo not shown) [Example 156, (E)-3-(4-Bromo-phenyl)-1-pyrazin-2-yl-3-o-tolyl-propan-1-one oxime], 6140 nM; under `Cc1ccccc1C(CC(=NO)c1ccnc(Cl)c1)c1ccc(Br)cc1` (racemic) [Example 119, 3-(4-Bromo-phenyl)-1-(2-chloro-pyridin-4-yl)-3-o-tolyl-propan-1-one oxime], 227 nM. Under `COC(=O)c1ccc(-c2ccc(C(C/C(=N\O)c3ccnc(C)c3)c3ccc(Cl)cc3F)cc2)cc1Cl` (stereo not shown) [Example 450, 3-Chloro-4′-[1-(4-chloro-2-fluoro-phenyl)-3-[(E)-hydroxyimino]-3-(2-methyl-pyridin-4-yl)-propyl]-biphenyl-4-carboxylic acid methyl ester] stands 416 nM; under `Cn1cc(/C(CC(c2ccc(Br)cc2)C2CCCC2)=N\O)ccc1=O` (stereo not shown) [Example 173, 5-{3-(4-Bromo-phenyl)-3-cyclopentyl-1-[(Z)-hydroxyimino]-propyl}-1-methyl-1H-pyridin-2-one], 1930 nM. In turn, `Cc1cc(F)ccc1[C@@H](C/C(=N\O)c1ccc(=O)n(C)c1)c1ccc(-c2ccc(S(N)(=O)=O)cc2)cc1` (single isomer, unassigned) [Example 407, (+)-4′-[1-(4-Fluoro-2-methyl-phenyl)-3-[(E)-hydroxyimino]-3-(1-methyl-6-oxo-1,6-dihydro-pyridin-3-yl)-propyl]-biphenyl-4-sulfonic acid amide] displayed an EC50 of 12 nM. The result for `Cc1ccccc1C(C/C(=N\O)c1ccc(=O)n(C)c1)c1ccc(OCC(=O)O)cc1F` (stereo not shown) [Example 221, {3-Fluoro-4-[3-[(E)-hydroxyimino]-3-(1-methyl-6-oxo-1,6-dihydro-pyridin-3-yl)-1-o-tolyl-propyl]-phenoxy}-acetic acid] reads 4080 nM. Under `Cc1cc(Cl)ccc1C(C/C(=N\O)c1ccc(=O)n(C)c1)c1ccc(O)c(F)c1` (stereo not shown) [Example 324, 5-{3-(4-Chloro-2-methyl-phenyl)-3-(3-fluoro-4-hydroxy-phenyl)-1-[(E)-hydroxyimino]-propyl}-1-methyl-1H-pyridin-2-one] stands 566 nM; under `Cc1ccccc1C(C/C(=N\O)c1ccc(=O)n(C)c1)c1ccc(C(=O)NCC(=O)O)cc1` (stereo not shown) [Example 215, {4-[3-[(E)-Hydroxyimino]-3-(1-methyl-6-oxo-1,6-dihydro-pyridin-3-yl)-1-o-tolyl-propyl]-benzoylamino}-acetic acid], 810 nM. The result for `Cc1cc(C(CC(c2ccccc2)c2ccccc2)=NO)ccn1` (racemic) [Example 57, 1-(2-Methyl-pyridin-4-yl)-3,3-diphenyl-propan-1-one oxime] reads 73 nM. `Cc1ccccc1C(CC(=NO)c1ccncc1)c1cccc(-c2ccc(S(C)(=O)=O)cc2)c1` (racemic) [Example 29, 3-(4′-Methanesulfonyl-biphenyl-3-yl)-1-pyridin-4-yl-3-o-tolyl-propan-1-one oxime] displayed an EC50 of 400 nM.

Compound `CCOC(=O)C(C(=O)OCC)c1ccc([C@H](C/C(=N\O)c2ccnc(C)c2)c2ccccc2C)cc1` [Example 286, 2-{4-[(S)-3-[(E)-Hydroxyimino]-3-(2-methyl-pyridin-4-yl)-1-o-tolyl-propyl]-phenyl}-malonic acid diethyl ester] displayed an EC50 of 2410 nM. The result for `CCOC(=O)c1cccc(-c2ccc(C(CC(=NO)c3ccnc(C)c3)c3ccccc3C)cc2)c1` (racemic) [Example 78, 4′-[3-[Hydroxyimino]-3-(2-methyl-pyridin-4-yl)-1-o-tolyl-propyl]-biphenyl-3-carboxylic acid ethyl ester] reads 381 nM. The result for `[O-][n+]1ccc(/C(CC(c2ccccc2)c2ccc(Br)cc2)=N/O)cc1` (stereo not shown) [Example 15, (E)-3-(4-Bromo-phenyl)-1-(1-oxy-pyridin-4-yl)-3-phenyl-propan-1-one oxime] reads 206 nM.

Regarding `CNS(=O)(=O)c1ccc(-c2ccc(C(C/C(=N\O)c3ccncc3)c3ccccc3)cc2)cc1` (stereo not shown) [Example 21, 4′-{3-[(E)-Hydroxyimino]-1-phenyl-3-pyridin-4-yl-propyl}-biphenyl-4-sulfonic acid methylamide], the EC50 came to 303 nM. The EC50 values of the last two compounds are within 1.5-fold of each other.
